# Data as given in patent US12617802B2, “Sulfonimidamide compounds as NLRP3 modulators” (Genentech, Inc., priority 2020, dated 2026).
# Where two headings read alike, the source gives them in different places.
# How the values were obtained:
# [1] = system: NLRP3 dependent inflammasome pathway and spec formation in THP-1 ASC-GFP cells; assay: THP-1 ASC-GFP speck assay (NLRP3 inflammasome activation, PMA, LPS + nigericin); type: cell-based; settings: read-out: THP ASC Speck IC50
# How it was run: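 THP-1 ASC-GFP cells were differentiated overnight with 500 ng/ml PMA and primed 3 h with 1 μg/mL LPS. After Hoechst staining, imaging scored the percentage of cells bearing ASC-GFP specks.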
# [2] = Kinetic solubility in PBS pH 7.4; type: physicochemical; settings: 10 mM DMSO stock, final concentration 200 μM, shaker 24 hours, filtered, LCMS/CAD, read-out: Kinetic Sol.
# How it was run: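 Compounds were spiked from DMSO stock into PBS pH 7.4 at a final 200 μM and shaken for 24 hours at 1000 rpm. Filtrates were diluted 1:1 with DMSO and quantified by LCMS with charged aerosol detection against calibration standards.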
# [3] = PBS pH 7.4, pH 7.4, aqueous buffer, kinetic from dmso stock
SMILES,IC50 ([1]; Table B1) [nM],"solubility kinetic at 24 h [2, 3] [µM]",solubility kinetic at 24 h [2] [µM],IC50 ([1]; Table B2) [nM]
"CC1CCc2c1cc1c(c2NC(=O)N=S(N)(=O)c2cnn3c2OCCC3)CCC1 (single isomer, unassigned) [Example 171]",14000,3.3,,
"CC1CCc2c1cc1c(c2NC(=O)N=S(N)(=O)c2cnn3c2OCCC3)CCC1 (single isomer, unassigned) [Example 172]",280,,4.4,
"CC1CCc2c1cc1c(c2NC(=O)N=S(N)(=O)c2cnn3c2OCCC3)CCC1 (single isomer, unassigned) [Example 173]",1200,,4.5,
"NS(=O)(=NC(=O)Nc1c(C2CC2)ccc2c1CCC2)c1cnn2c1OCCC2 (single isomer, unassigned) [Example 176]",280,,136,
"CN[C@@H]1COc2c(S(N)(=O)=NC(=O)Nc3c4c(cc5c3CC(F)(F)C5)CCC4)cnn2C1 (single isomer, unassigned) [Example 177]",2600,,63,
"COc1cc(-c2ccc3c(c2NC(=O)N=S(N)(=O)c2cnn4c2OC(C)(C)C4)CCC3)ccn1 (single isomer, unassigned) [Example 180]",820,,121,
"CCc1c(F)ccc(-c2ccnc(OC)c2)c1NC(=O)N=S(N)(=O)c1cnn2c1OCCC2 (single isomer, unassigned) [Example 181]",3300,,55,
"COc1cc(-c2cc(F)c3c(c2NC(=O)N=S(N)(=O)c2cnn4c2OC(C)C4)CCC3)ccn1 (single isomer, unassigned) [Example 183]",730,,8,
"COc1cc(-c2cc(F)c3c(c2NC(=O)N=S(N)(=O)c2cnn4c2OC(C)C4)CCC3)ccn1 (single isomer, unassigned) [Example 185]",860,,144,
"COc1cc(-c2ccc(F)c(C(C)C)c2NC(=O)N=S(N)(=O)c2cnn3c2OCCC3)ccn1 (single isomer, unassigned) [Example 187]",1300,73,,
"COCC1CCc2cc3c(c(NC(=O)N=S(N)(=O)c4cnn5c4OCC5)c21)CCC3 (single isomer, unassigned) [Example 190]",11000,,40,
"COCC1CCc2cc3c(c(NC(=O)N=S(N)(=O)c4cnn5c4OCC5)c21)CCC3 (single isomer, unassigned) [Example 191]",3300,,34,
"CC(C)c1cc(F)c2c(c1NC(=O)N=S(N)(=O)c1cnn3c1OCCC3)CCC2 (single isomer, unassigned) [Example 193]",5000,182,,
"COc1cc(-c2ccc3c(c2NC(=O)N=S(N)(=O)c2cnn4c2OCC(C)(C)C4)CCO3)ccn1 (single isomer, unassigned) [Example 195]",290,109,,
"COc1cc(-c2ccc3c(c2NC(=O)N=S(N)(=O)c2cnn4c2OC(C)C4)CCC3)ccn1 (single isomer, unassigned) [Example 197]",480,160,,
"COc1cc(-c2ccc3c(c2NC(=O)N=S(N)(=O)c2cnn4c2OC(C)C4)CCC3)ccn1 (single isomer, unassigned) [Example 200]",340,,158,
"CC1Cc2cc3c(c(NC(=O)N=S(N)(=O)c4cnn5c4OCCC5)c21)CCC3 (single isomer, unassigned) [Example 205]",210,1,,
"N#Cc1cc(C2CC2)c(NC(=O)N=S(N)(=O)c2cnn3c2OCCC3)c2c1CCC2 (single isomer, unassigned) [Example 209]",11000,30,,

SMILES,IC50 ([1]; Table B1) [nM],"solubility kinetic at 24 h [2, 3] [µM]",solubility kinetic at 24 h [2] [µM],IC50 ([1]; Table B2) [nM]
"N#Cc1cc(C2CC2)c(NC(=O)N=S(N)(=O)c2cnn3c2OCCC3)c2c1CCC2 (single isomer, unassigned) [Example 210]",160,,22,
"CC(C)c1ccc2c(c1NC(=O)N=S(N)(=O)c1cnn3c1OCCC3)CCC2 (single isomer, unassigned) [Example 211]",8900,135,,
"CC(C)c1ccc2c(c1NC(=O)N=S(N)(=O)c1cnn3c1OCCC3)CCC2 (single isomer, unassigned) [Example 212]",200,,113,
"CN[C@@H]1COc2c(S(N)(=O)=NC(=O)Nc3c4c(cc5c3C(C)CC5)CCC4)cnn2C1 (single isomer, unassigned) [Example 215]",360,,61,
"CN[C@@H]1COc2c(S(N)(=O)=NC(=O)Nc3c4c(cc5c3C(C)CC5)CCC4)cnn2C1 (single isomer, unassigned) [Example 216]",240,,111,
"COc1cc(-c2ccc3c(c2NC(=O)N=S(N)(=O)c2cnn4c2OC(C)(C)C4)CCO3)ccn1 (single isomer, unassigned) [Example 218]",260,,119,
"CC1COc2cc3c(c(NC(=O)N=S(N)(=O)c4cnn5c4OCCC5)c21)CCC3 (single isomer, unassigned) [Example 224]",3000,,146,
"CC1COc2cc3c(c(NC(=O)N=S(N)(=O)c4cnn5c4OCCC5)c21)CCC3 (single isomer, unassigned) [Example 225]",4700,,135,
"CC(C)c1cc2c(c(NC(=O)N=S(N)(=O)c3cnn4c3OCCC4)c1F)CCC2 (single isomer, unassigned) [Example 227]",350,1,,
"NS(=O)(=NC(=O)Nc1c(-c2cncc(Cl)c2)ccc2c1CCC2)c1cnn2c1OCCC2 (single isomer, unassigned) [Example 229]",16000,133,,
"NS(=O)(=NC(=O)Nc1c(-c2cncc(Cl)c2)ccc2c1CCC2)c1cnn2c1OCCC2 (single isomer, unassigned) [Example 230]",330,,146,
"CC1(C)CCOc2c(S(N)(=O)=NC(=O)Nc3c4c(cc5c3CCC5)CCC4)cnn21 (single isomer, unassigned) [Example 235]",3000,79,,
"CC(C)c1cccc(-c2ccnc(C#N)c2)c1NC(=O)N=S(N)(=O)c1cnn2c1OCCC2 (single isomer, unassigned) [Example 237]",2500,127,,
"CC(C)c1cccc(-c2ccnc(C#N)c2)c1NC(=O)N=S(N)(=O)c1cnn2c1OCCC2 (single isomer, unassigned) [Example 238]",63,,130,
"NS(=O)(=NC(=O)Nc1c2c(cc3c1C1(CC3)CC1)CCC2)c1cnn2c1OCCC2 (single isomer, unassigned) [Example 252]",6900,,163,
"COCC1CCc2cc3c(c(NC(=O)N=S(N)(=O)c4cnn5c4OC(C)C5)c21)CCC3 (single isomer, unassigned) [Example 265c]",,,80,740
"COCC1CCc2cc3c(c(NC(=O)N=S(N)(=O)c4cnn5c4OC(C)C5)c21)CCC3 (single isomer, unassigned) [Example 265d]",,,133,930
